In US9708336B2, “Metallo-beta-lactamase inhibitors” (priority 2014, dated 2017):
Read-outs that look alike come from different tables or passages of the source.

Key:
[1] = molecular target: IMP-1 (Serratia marcescens, UniProt P52699); experiment: biochemical; format: biochemical; conditions: read-out: IMP-1 IC50
[2] = tested on: Escherichia coli expressing NDM-1 (CLB30016); experiment: Antibiotic potentiation activity: synergistic concentration (MITC95) with imipenem, OD600 growth; format: cell-based; conditions: for Escherichia coli expressing NDM-1 (CLB 30016) MITC95: concentration giving 95% inhibition of bacterial growth; for Escherichia coli MITC95: 95% growth inhibition
Method: (§1) Antibiotic Potentiation Activity: Determination of Synergistic Concentration
(§2) The bacterial strains tested included the clinical strains Escherichia coli expressing NDM-1 (CLB30005, CLB30016), Serratia marcescens expressing IMP-1 (CL5741), and Klebsiella pneumoniae expressing VIM-1 (IHMA599644) Inhibitor activity was measured in the presence and absence of imipenem in a 384-well microplate.
(§3) The clinical strains CLB30016, CL5741 and IHMA599644 were grown on trypticase soy agar containing 5% sheep's blood. The clinical strain CLB30005 was grown on Mueller Hinton broth agar containing 8 ug/ml imipenem. The bacteria on agar plates were incubated at 35° C. with humidity overnight. The following day, individual colonies from each clinical strain were picked and resuspended in 5 ml saline to attain an OD600 of 0.14, 0.11, 0.15 and 0.13, for CLB30005, CLB30016, CL5741 and IHMA599644, respectively. These were further diluted 1:100 into 1.1×CAMHB and used to inoculate the test wells as described below.
(§4) Imipenem in 10 mM 3-(N-morpholino)propanesulfonic acid (MOPS, pH 7) was stored in single use aliquots at −80° C. […] On the day of the assay, 4 μl of antibiotic was added to 45 ul of bacteria followed by 1 μl of test compound and mixed by pipetting and with an orbital shaker. The concentration of antibiotic used in the assay was 4 μg/ml, or optionally 1 μg/ml. Microplates were covered and incubated at 35° C. for 22 hours to 24 hours. At the end of the incubation, absorbance was determined using a spectrophotometer.

[3] = tested on: Klebsiella pneumoniae expressing VIM-1 (IHMA599644); experiment: as above; format: cell-based; conditions: for Klebsiella pneumoniae expressing VIM-1 (IHMA 599644) MITC95: concentration giving 95% inhibition of bacterial growth; for Klebsiella pneumoniae MITC95: 95% growth inhibition
Method: as §1, §2, §3, §4

[4] = tested on: Serratia marcescens expressing IMP-1 (CL5741); experiment: as above; format: cell-based; conditions: for Serratia marcescens expressing IMP-1 (CL5741) MITC95: concentration giving 95% inhibition of bacterial growth; for Serratia marcescens MITC95: 95% growth inhibition
Method: as §1, §2, §3, §4

[5] = molecular target: NDM-1 (Klebsiella pneumoniae, UniProt C7C422); experiment: biochemical; format: biochemical; conditions: read-out: NDM-1 IC50
[6] = molecular target: VIM-1 (Pseudomonas aeruginosa (strain ATCC 15692 / DSM 22644 / CIP 104116 / JCM 14847 / LMG 12228 / 1C / PRS 101 / PAO1), UniProt A0A0F7KYQ8); experiment: Enzyme activity: determination of IC50, fluorescence assay with CCF2-FA substrate (VIM-1); format: biochemical
[7] = fluorescence assay with CCF2-FA substrate
[8] = IMP-1 enzyme, CCF2-FA substrate
[9] = Klebsiella pneumoniae IHMA599644 (VIM-1)
[10] = Serratia marcescens CL5741 (IMP-1)
[11] = NDM-1 enzyme, CCF2-FA substrate
[12] = VIM-1 enzyme, CCF2-FA substrate, read-out: VIM-1 IC50
[13] = Escherichia coli expressing NDM-1 (CLB30016)
[14] = Klebsiella pneumoniae expressing VIM-1 (IHMA599644)
[15] = Serratia marcescens expressing IMP-1 (CL5741)
[16] = VIM-1 enzyme, CCF2-FA fluorescence assay, read-out: VIM-1 IC50
[17] = IMP-1 enzyme, CCF2-FA fluorescence assay
[18] = NDM-1 enzyme, CCF2-FA fluorescence assay

Chain of NDM-1 (C7C422 whole entry, looked up, species assumed): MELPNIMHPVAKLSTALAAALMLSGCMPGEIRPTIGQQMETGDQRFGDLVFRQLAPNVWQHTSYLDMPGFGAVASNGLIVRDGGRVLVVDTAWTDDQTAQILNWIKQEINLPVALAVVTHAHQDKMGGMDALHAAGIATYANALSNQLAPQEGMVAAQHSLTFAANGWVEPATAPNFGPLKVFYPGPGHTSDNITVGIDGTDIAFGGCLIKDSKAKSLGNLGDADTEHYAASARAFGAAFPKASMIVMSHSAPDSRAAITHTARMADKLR
Chain of IMP-1 (P52699 whole entry, looked up): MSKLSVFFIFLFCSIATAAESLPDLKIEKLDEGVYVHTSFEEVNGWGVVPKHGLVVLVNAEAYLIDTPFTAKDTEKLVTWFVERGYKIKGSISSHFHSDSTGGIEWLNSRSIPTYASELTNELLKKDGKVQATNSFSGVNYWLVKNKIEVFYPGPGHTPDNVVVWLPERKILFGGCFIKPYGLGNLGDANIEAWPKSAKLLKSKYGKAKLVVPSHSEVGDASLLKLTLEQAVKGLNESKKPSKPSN

SMILES	Escherichia coli MITC95 ([2]; (CLB30016, NDM-1)) [µM]	Klebsiella pneumoniae MITC95 [3, 9] [µM]	Serratia marcescens MITC95 [4, 10] [µM]	IC50 [6, 12] [nM]	also measured
NS(=O)(=O)c1nccc(N2CCC(N3CC[C@H](O)C3)CC2)c1-c1nnn[nH]1 [Example 226, 4-{4-[(3S)-3-hydroxypyrrolidin-1-yl]piperidin-1-yl}-3-(1H-tetrazol-5-yl)pyridine-2-sulfonamide]					IC50 [1, 7]: 3870 nM; Escherichia coli expressing NDM-1 (CLB 30016) MITC95 [2]: 6.25 µM; Klebsiella pneumoniae expressing VIM-1 (IHMA 599644) MITC95 [3]: 12.5 µM; Serratia marcescens expressing IMP-1 (CL5741) MITC95 [4]: 50 µM; IC50 [5, 7]: 481 nM; IC50 ([6]; fluorescence assay with CCF2-FA substrate, read-out: VIM-1 IC50): 710 nM
NS(=O)(=O)c1c(C(F)(F)F)ccc([C@H]2CC[C@@H](O)CC2)c1-c1nnn[nH]1 [Example 495]	2.344	25	0.5859	22.1	IC50 [1, 8]: 4.26 nM; IC50 [5, 11]: 1.87 nM
NS(=O)(=O)c1c(C(F)(F)F)ccc([C@H]2CC[C@H](NC3CCCNCC3)CC2)c1-c1nnn[nH]1 (stereo partly shown) [Example 695, 3-[4-(azepan-4-ylamino)cyclohexyl]-2-(1H-tetrazol-5-yl)-6-(trifluoromethyl)benzene sulfonamide]	0.7813	6.25	3.125	13.2	IC50 [1, 8]: 42.3 nM; IC50 [5, 11]: 13.6 nM
NS(=O)(=O)c1c(CCC2CCNCC2)ccc(-c2ccnc3ccccc23)c1-c1nn[nH]n1 [Example 452, 6-(2-(piperidin-4-yl)ethyl)-3-(quinolin-4-yl)-2-(2H-tetrazol-5-yl)benzenesulfonamide]					Escherichia coli MITC95 [2, 13]: 1.563 µM; Klebsiella pneumoniae MITC95 [3, 14]: 4.688 µM; Serratia marcescens MITC95 [4, 15]: 9.375 µM; IC50 [6, 16]: 1.98 nM
NCc1ccc(-c2ccc(Br)c(S(N)(=O)=O)c2-c2nn[nH]n2)cc1 [Example 271, 4′-(aminomethyl)-4-bromo-2-(2H-tetrazol-5-yl)-[1,1′-biphenyl]-3-sulfonamide]					Escherichia coli MITC95 [2, 13]: 0.3906 µM; Klebsiella pneumoniae MITC95 [3, 14]: 2.344 µM; Serratia marcescens MITC95 [4, 15]: 0.5859 µM; IC50 [6, 16]: 11.7 nM
Cn1ccnc1CN1CCC(c2ccc(-c3cccc(S(N)(=O)=O)c3-c3nnn[nH]3)cc2)CC1 [Example 621, 3-[4-[1-[(1-methylimidazol-2-yl)methyl]-4-piperidyl]phenyl]-2-(1H-tetrazol-5-yl)benzenesulfonamide]	3.906	>200	1.563	508	
C[N+]1(C)CCc2c(cccc2-c2ccc(C(F)(F)F)c(S(N)(=O)=O)c2-c2nn[nH]n2)C1 [Example 520, 2,2-Dimethyl-5-(3-sulfamoyl-2-(2H-tetrazol-5-yl)-4-(trifluoromethyl)phenyl)-1,2,3,4-tetrahydroisoquinolin-2-ium]	3.125	3.125	3.125	1.96	
Cc1cc(N)ncc1-c1ccc(C(F)(F)F)c(S(N)(=O)=O)c1-c1nn[nH]n1 [Example 557, 3-(6-amino-4-methyl-3-pyridyl)-2-(2H-tetrazol-5-yl)-6-(trifluoromethyl)benzenesulfonamide]	0.3906	6.25	6.25	0.656	
Cn1cncc1CN1CCC(c2ccc(-c3cccc(S(N)(=O)=O)c3-c3nnn[nH]3)cc2)CC1 [Example 620, 3-[4-[1-[(3-methylimidazol-4-yl)methyl]-4-piperidyl]phenyl]-2-(1H-tetrazol-5-yl)benzenesulfonamide]	7.813	>200	2.344	1030	
Cc1nc(N)ccc1-c1ccc(C(F)(F)F)c(S(N)(=O)=O)c1-c1nn[nH]n1 [Example 555, 3-(6-amino-2-methyl-3-pyridyl)-2-(2H-tetrazol-5-yl)-6-(trifluoromethyl)benzenesulfonamide]	0.5859	3.125	6.25	0.177	
CS(=O)(=O)NC1CCC(c2cccc(S(N)(=O)=O)c2-c2nn[nH]n2)CC1 (stereo not shown) [Example 169, 3-(4-(methylsulfonamido)cyclohexyl)-2-(2H-tetrazol-5-yl)benzenesulfonamide]					Escherichia coli expressing NDM-1 (CLB 30016) MITC95 [2]: 2.344 µM; Klebsiella pneumoniae expressing VIM-1 (IHMA 599644) MITC95 [3]: 50 µM; Serratia marcescens expressing IMP-1 (CL5741) MITC95 [4]: 3.125 µM; IC50 ([6]; VIM-1 IC50, fluorescence assay with CCF2-FA substrate): 57.6 nM
CC(C)(C)Cc1ccc(-c2cccc3sc(N)nc23)c(-c2nn[nH]n2)c1S(N)(=O)=O [Example 537, 3-(2-Aminobenzo[d]thiazol-4-yl)-6-neopentyl-2-(2H-tetrazol-5-yl)benzenesulfonamide]	50	>200	50	66.7	
Nc1nc2c(-c3ccc(CCC4CCNCC4)c(S(N)(=O)=O)c3-c3nn[nH]n3)cccc2s1 [Example 540, 3-(2-Aminobenzo[d]thiazol-4-yl)-6-(2-(piperidin-4-yl)ethyl)-2-(2H-tetrazol-5-yl)benzenesulfonamide]	1.563	12.5	6.25	6.7	
NS(=O)(=O)c1c(C(F)(F)F)ccc(-c2ccc3nccn3c2)c1-c1nnn[nH]1 [Example 481, 3-imidazo[1,2-a]pyridin-6-yl-2-(1H-tetrazol-5-yl)-6-(trifluoromethyl)benzenesulfonamide]					IC50 [1, 17]: 7.11 nM; Escherichia coli MITC95 [2, 13]: 0.125 µM; Klebsiella pneumoniae MITC95 [3, 14]: 1.922 µM; Serratia marcescens MITC95 [4, 15]: 0.543 µM; IC50 [5, 18]: 1.46 nM
NS(=O)(=O)c1c(C(F)(F)F)ccc(-c2ccc(C3CCNCC3)cc2)c1-c1nn[nH]n1 [Example 269, 4′-(piperidin-4-yl)-2-(2H-tetrazol-5-yl)-4-(trifluoromethyl)-[1,1′-biphenyl]-3-sulfonamide]					IC50 [1, 17]: 1.43 nM; Escherichia coli MITC95 [2, 13]: 0.7383 µM; Klebsiella pneumoniae MITC95 [3, 14]: 1.969 µM; Serratia marcescens MITC95 [4, 15]: 0.3125 µM; IC50 [5, 18]: 1.21 nM
C[N+]1(C)CCC(Cc2ccc(-c3ccc(C4CNC4)cc3)c(-c3nn[nH]n3)c2S(N)(=O)=O)CC1 [Example 605, 3-[4-(azetidin-3-yl)phenyl]-6-[(1,1-dimethylpiperidin-1-ium-4-yl)methyl]-2-(2H-tetrazol-5-yl)benzenesulfonamide]	6.25	3.125	6.25	3.89	IC50 [1, 8]: 160 nM
NS(=O)(=O)c1c(CCC2CCNCC2)ccc(-c2ccc(C3CNC3)cc2)c1-c1nnn[nH]1 [Example 598, 3-[4-(azetidin-3-yl)phenyl]-6-[2-(4-piperidyl)ethyl]-2-(1H-tetrazol-5-yl)benzenesulfonamide]	1.563	1.563	3.125	4.41	
NS(=O)(=O)c1nccc(NCc2ccccc2)c1-c1nnn[nH]1 [Example 235, 4-(benzylamino)-3-(1H-tetrazol-5-yl)pyridine-2-sulfonamide]					IC50 [1, 7]: 3440 nM; Escherichia coli expressing NDM-1 (CLB 30016) MITC95 [2]: 12.5 µM; Klebsiella pneumoniae expressing VIM-1 (IHMA 599644) MITC95 [3]: >200 µM; Serratia marcescens expressing IMP-1 (CL5741) MITC95 [4]: 200 µM; IC50 [5, 7]: 142 nM
